# From patent US9234038B2, “Compositions and method for the diagnosis, prevention and treatment of alzheimer's disease” (Seoul National University Industry Foundation, priority 2007, dated 2016)
# Entries after “also recorded” stand apart in the source; their conditions may differ.
# T1: FcγRIIb-CD40 chimera (UniProt P25942+Q63203)
# T1 construct: an extracellular domain of FcγRIIb was genetically fused to CD40, consisting of a transmembrane domain and a cytoplasmic domain; human CD40 transmembrane and cytoplasmic domains (fusion partner); expressed in transfected cells; host or cells: NIH3T3
# T1 sequence (Q63203+P25942 with tags, fused parts or gaps): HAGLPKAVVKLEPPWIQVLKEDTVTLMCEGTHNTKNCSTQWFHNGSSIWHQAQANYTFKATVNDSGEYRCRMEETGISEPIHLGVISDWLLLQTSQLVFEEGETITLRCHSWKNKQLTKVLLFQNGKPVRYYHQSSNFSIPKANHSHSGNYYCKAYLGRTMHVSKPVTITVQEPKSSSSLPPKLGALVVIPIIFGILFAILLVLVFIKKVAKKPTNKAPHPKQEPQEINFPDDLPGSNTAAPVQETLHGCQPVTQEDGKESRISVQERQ
# B1: siRNA against RAGE: siRNA against RAGE, oligomers SEQ ID Nos. 13 and 14, inserted into pSuper-neo (nucleic acid)
# sense: GATCCCCGCTCCGGATGAAGAATCAGTTCAAGAGACTGATTCTTCATCCGGAGCTTTTTGGAAA
# antisense: AGCTTTTCCAAAAAGCTCCGGATGAAGAATCAGTCTCTTGAACTGATTCTTCATCCGGAGCGGAGTCGGG
# modifications: expressed or natural sequence; the letters are possibly those of the target site
# Assays:
# FcγRIIb-CD40 chimera = molecular target: T1, FcγRIIb-CD40 chimera; test: FcγRIIb-CD40 chimera NF-κB luciferase assay of Aβ binding; format: cell-based, rat; details: Aβ 5 μM
# Text: In order to investigate whether FcγRIIb binds to Aβ in a specific manner, an extracellular domain of FcγRIIb was genetically fused to CD40, consisting of a transmembrane domain and a cytoplasmic domain. The resulting FcγRIIb-CD40 fusion gene was expressed in NIH3T3 cells to increase NF-κ B activity, a signal transducer of CD40, when the fusion protein binds to Aβ. The chimeric gene was constructed as follows. A rat FcγRIIb extracellular region and human CD40 transmembrane and cytoplasmic domains were amplified by performing PCR with FcγRIIb-ED-5′-NheI primer (5′-[…]-3′: SEQ ID No. 15), FcγRIIb-ED-3′-HindIII primer (5′-[…]3′: SEQ ID No. 16), CD40-TM+cyto-5′ primer (5′-[…]-3′: SEQ ID No. 17), and CD40-TM+cyto-3′ primer (5′-[…]-3′: SEQ ID No. 18). PCR products were inserted into a pEGFP-N1 vector according to the same method as in Example 3. Cells were transfected with the chimeric gene, CD40, TNFRI, pcDNA3 (mock) along with an NF-kB-luciferase gene, and were exposed to 5 μM of Aβ or 20 ng/ml of TNF. NF-κ B activity was assessed, as described in Woo et al., FEBS Lett. 578, 239-244, 2004.
# Based on the results of Example 10, a sequence spanning from the first to ninth residues from the N-terminus of Aβ, and a 95 to 101 sequence and a 107 to 114 sequence of mouse FcγRIIb, which are Aβ docking sites, were synthesized. Also, peptides, in which a residue involved in Aβ-cγRIIb binding in the above sequences was replaced with alanine, were synthesized. The peptides (wild type and mutant) have the sequences represented by SEQ ID Nos. 19 to 28 (panel a, FIG. 10). The synthesized peptides were individually allowed to react with a mixture of FcγRIIb-CD40 and Aβ (5 μM) or PBS. Then, luciferase activity was measured.
# BALB/c mice [1] = test: Memory test (Y-maze, passive avoidance) after i.c.v. Aβ; format: in vivo, mouse; details: i.c.v. injection of Aβ 410 pmole plus peptide, tests after one day
# Method: Tg2576 mice were not used in this test because it takes a lot of time to breed the animals, and they are expensive. Instead, normal mice were used in this memory test because the same AD symptoms as in Tg2576 mice were observed when Aβ was injected into the brains of normal mice. Normal BALB/c mice were injected intracerebroventricularly (i.c.v.) with Aβ (1.855 μg/5 μl, 410 pmole) alone or in combination with a specific peptide. After one day, a Y-maze test and a passive avoidance test were performed. Memory was assessed as described in Yan et al., Br. J. Pharmacol, 133:89-96, 2001.
# BALB/c mice [2] = test: Immunostaining of intraneuronal Aβ accumulation in mouse brain; format: in vivo; details: mice treated i.c.v. with Aβ plus peptide
# Method: Brain specimens were prepared from the mice of Example 13 according to the same method as in Example 6. Sections were immunostained with primary antibodies, anti-Aβ antibody (Biosource, USA) plus an antibody to a marker of neurons, anti-neuron specific enolase (NSE) antibody (Axxora, Swiss) or anti-neuron specific nuclear protein (NeuN) antibody (Chemicon, USA), and with secondary antibodies, anti-mouse-FITC antibody (goat anti-mouse IgG conjugated to FITC (Santa Cruz Biotechnology, USA), anti-mouse-TRITC antibody (goat anti-mouse IgG conjugated to TRITC (Santa Cruz Biotechnology, USA), and anti-rabbit-goat-anti-mouse IgG conjugated to horseradish peroxidase (Santa Cruz Biotechnology, USA)).
# [3] = test system: primary-cultured neuronal cells; test: Cell survival of Aβ-exposed primary neuronal culture treated with FcγRIIb ED; format: cell-based, rat; details: 5 μM Aβ 48 hrs, 100 μg FcγRIIb ED, compared to BSA
# Method: (§1) An FcγRIIb extracellular domain (ED) was purified as described in Sondermann et al., EMBO J, 18:1095-1103, 1999. Neuronal B103 cells or primary-cultured neuronal cells were exposed to 5 μM of Aβ for 48 hrs. Then, cells were treated or not treated with 100 μg of the purified FcγRIIb ED, or treated or not treated with 100 μg of bovine serum albumin (BSA). B103 cells were subjected to Western blotting, which was performed with anti-FcγRIIb antibody as described in Example 2-2. The primary neuronal culture was evaluated for cell survival as described in Example 3.
# FcγRIIb = test: Western blot of FcγRIIb expression in Aβ-exposed B103 cells treated with FcγRIIb ED; format: cell-based, rat; details: 5 μM Aβ 48 hrs; 100 μg FcγRIIb ED
# Method: as §1
# Aβ1-42 = molecular target: T2, Aβ1-42 (Homo sapiens, UniProt P05067); test: In vitro binding assay (immunoprecipitation, Western blot); details: 5 μM Aβ, 20 μg FcγRIIb-ED, 37° C. 3 hrs
# T2 construct: subjected to Western blotting to assess the association between FcγRII and Aβ1-42; purchased Sigma
# Method: 5 μM of Aβ was mixed with 20 μg of FcγRIIb-ED or 20 μg of BSA in vitro, and was incubated at 37° C. for 3 hrs. The reaction mixture was incubated with anti-FcγRIIb polyclonal antibody or anti-GST antibody for 2 hrs, and then with Protein G for 3 hrs (binding solution: 50 mM Tris-HCl, pH 7.4, 1 mM DTT, 0.5 mM EDTA, 0.01% Triton X-100, 0.5 mg/ml bovine serum albumin, 10% (v/v) glycerol, protease inhibitors cocktail, several concentrations of NP-40). The beads were washed three times and subjected to Western blotting to assess the association between FcγRII and Aβ1-42. Western blotting was carried out with K9.361 antibody and anti-Aβ antibody (primary antibody: 71-5800 (Zymed, USA); secondary antibody: goat anti-rabbit IgG conjugated to horseradish peroxidase (Santa Cruz Biotechnology, USA).
# B103 cells [4] = test: Viability of siRNA-transfected B103 cells exposed to Aβ; format: cell-based, rat; details: 5 μM Aβ, 48 hrs
# Text: Small interfering RNAs (siRNAs) inhibiting the expression of FcγIIb and receptors for advanced glycation end-product (RAGE), which is known as a cell surface receptor of Aβ, were constructed, and their effects on cell death were compared to each other. A siRNA duplex was formed by hybridizing sense and antisense complementary RNA oligonucleotides, listed in Table 1, below, and was inserted into pSuper-neo (Oligoengine, USA). The siRNA expression vectors thus constructed were individually transfected into B103 cells using lipofectamine (Invitrogen, USA) according to the manufacturer's protocol. The resulting transfected cells were designated “pSuper-neo”, “psiFcγRIIb#1”, “psiFcγRIIb#2”, “psiRAGE#1”, and “psiRAGE#2”. Then, transfected cells were subjected to Western blot analysis. […] Then, the transformed B103 cells were exposed to 5 μM of Aβ or PBS for 48 hrs, and their viability was evaluated. Cell survival was assessed through trypan blue exclusion, Hoechst staining (Sigma, USA), and Annexin V labeling (Promega, USA). The survival of effector cells and cells introduced with pEGFP (Clontech, USA) was determined by observing the morphology of GFP-positive cells under a fluorescence microscope (Leica DMRBE, Germany). Cells were determined to be dead when the cell morphology changed to a spherical shape and the cell membrane was disrupted or destroyed.
# B103 cells [5] = test: Immunostaining of intracellular Aβ accumulation in siRNA-transfected B103 cells; format: cell-based, rat; details: 100 nM Aβ, 12 hrs
# Method: psiFcγRIIb #1 cells or psiRAGE #1 cells, prepared in Example 4, were exposed to 100 nM of Aβ or PBS for 12 hrs, and immunostained with anti-Aβ antibody (4G8; Signet, USA) according to the same method as in Example 2-3.
# T2 sequence (P05067 672-713): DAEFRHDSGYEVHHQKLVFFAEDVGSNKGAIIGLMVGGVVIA
molecule,measurement,setting,value
9: synthesized peptide among SEQ ID Nos. 19 to 28; corresponds to a binding region in Aβ or FcγRIIb; probably SEQ ID No. 27 (RCHSWRNK; Synthetic peptide #9 for interaction inhibitor) [compound 9],NF-κB activation induced through binding of Aβ to FcγRIIb-CD40 (luciferase activity),FcγRIIb-CD40 chimera,strongly inhibited; also recorded: effectively inhibited
same,Aβ-induced memory decline,BALB/c mice [1],strongly reduce; also recorded: restore
peptide #1: synthesized peptide among SEQ ID Nos. 19 to 28; corresponds to a binding region in Aβ or FcγRIIb; probably SEQ ID No. 19 (DAEFRHDSG; Synthetic peptide #1 for interaction inhibitor),NF-κB activation induced through binding of Aβ to FcγRIIb-CD40 (luciferase activity),FcγRIIb-CD40 chimera; listed as #1,strongly inhibited; also recorded: effectively inhibited
same,Aβ-induced memory decline,BALB/c mice [1]; listed as #1,strongly reduce; also recorded: restore
same,intraneuronal Aβ accumulation in brain,BALB/c mice [2]; listed as #1,disappeared; also recorded: completely inhibited
"FcγRIIb ED: purified FcγRIIb extracellular domain (SEQ ID No. 33), purified as described in Sondermann et al. 1999",Aβ signaling / relative cell viability,[3],completely inhibit
same,Aβ signaling / relative cell viability,[3]; listed as FcγRIIb extracellular domain,increased to that of cells not exposed to Aβ; also recorded: increase the relative viability of neuronal cells exposed to Aβ to the same level as cells not exposed to Aβ
same,Aβ-increased expression of FcγRIIb,FcγRIIb,suppressed
same,binding of Aβ to FcγRIIb-ED,Aβ1-42,directly bind
peptide #7: mutant peptide having an alanine substitution for a residue responsible for Aβ-FcγRIIb binding; among SEQ ID Nos. 19 to 28 (DAEARHASG; Synthetic peptide #7 for interaction inhibitor),NF-κB activation induced through binding of Aβ to FcγRIIb-CD40 (luciferase activity),FcγRIIb-CD40 chimera,sharp decrease in inhibitory effects
same,Aβ-induced memory decline,BALB/c mice [1],failed to reverse memory decline
same,intraneuronal Aβ accumulation in brain,BALB/c mice [2],strong intraneuronal Aβ staining
B1,Aβ-induced cell death / survival,B103 cells [4],low survival
same,intracellular Aβ accumulation,B103 cells [5],maintained
